Experimental data from PubChem BioAssay AID180 (DTP/NCI, 2004).
Several values for one entry are separate records, joined by “and”; a condition that tells them apart may be missing. Equal values may be shown once.

Tested on: BDF1 mice, Adenocarcinoma 755 s.c., tumor weight T/C
Assay: NCI In Vivo Anticancer Drug Screen. Data for tumor model Adenocarcinoma 755 (subcutaneous) in B6D2F1 (BDF1) mice
Settings: endpoint: mean tumor weight, higher = larger tumour
Procedure, shortened: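 Transplantable tumor implanted; mice dosed with compound or vehicle; survival or tumor size recorded; ratio of treated to vehicle control reported.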

[1] = dose: 6.0 mg/kg/injection, schedule: Q01DX011 (ip), vehicle: carboxymethylcellulose (CMC)
[2] = dose: 25.0 mg/kg/injection, schedule: Q01DX011 (ip), vehicle: carboxymethylcellulose (CMC)
[3] = dose: 75.0 mg/kg/injection, schedule: Q01DX011 (ip), vehicle: carboxymethylcellulose (CMC)
[4] = dose: 50.0 mg/kg/injection, schedule: Q01DX011 (ip), vehicle: carboxymethylcellulose (CMC)
[5] = dose: 100.0 mg/kg/injection, schedule: Q01DX011 (ip), vehicle: carboxymethylcellulose (CMC)
[6] = dose: 200.0 mg/kg/injection, schedule: Q01DX011 (ip), vehicle: carboxymethylcellulose (CMC)
[7] = dose: 37.5 mg/kg/injection, schedule: Q01DX011 (ip), vehicle: methylcellulose (MC)
[8] = dose: 30.0 mg/kg/injection, schedule: Q01DX011 (ip), vehicle: carboxymethylcellulose (CMC)

## O=C(Nc1ncnc2c1ncn2C1CC(OC(=O)c2ccc([N+](=O)[O-])cc2)C(COC(=O)c2ccc([N+](=O)[O-])cc2)O1)c1ccccc1 (configuration not stated)
dose: 16.7 mg/kg/injection, schedule: Q01DX011 (ip), vehicle: methylcellulose (MC)
  T/C: 104 % of control
dose: 50.0 mg/kg/injection, schedule: Q01DX011 (ip), vehicle: methylcellulose (MC)
  T/C: 102 % of control
dose: 150.0 mg/kg/injection, schedule: Q01DX011 (ip), vehicle: methylcellulose (MC)
  T/C: 62 % of control

## CCCn1cnc2c(SC(C)C)nc(N)nc21
dose: 3.1 mg/kg/injection, schedule: Q01DX011 (ip), vehicle: methylcellulose (MC)
  T/C: 16 % of control
dose: 6.25 mg/kg/injection, schedule: Q01DX011 (ip), vehicle: methylcellulose (MC)
  T/C: 2 % of control

## CC(C)CNS(=O)(=O)c1ncnc2nc[nH]c12
[1]
  T/C: 62 % of control
dose: 6.0 mg/kg/injection, schedule: Q01DX011 (ip), vehicle: other
  T/C: 81 % of control
dose: 12.0 mg/kg/injection, schedule: Q01DX011 (ip), vehicle: other
  T/C: 96 % of control
dose: 12.5 mg/kg/injection, schedule: Q01DX011 (ip), vehicle: carboxymethylcellulose (CMC)
  T/C: 24 % of control
dose: 19.0 mg/kg/injection, schedule: Q01DX011 (ip), vehicle: carboxymethylcellulose (CMC)
  T/C: 12 % of control
[2]
  T/C: 8 % of control
dose: 25.0 mg/kg/injection, schedule: Q01DX011 (ip), vehicle: other
  T/C: 34 % of control
dose: 50.0 mg/kg/injection, schedule: Q01DX011 (ip), vehicle: other
  T/C: 6 % of control
[3]
  T/C: 2 % of control
dose: 100.0 mg/kg/injection, schedule: Q01DX011 (ip), vehicle: other
  T/C: 10 % of control

## CCCCN(C)N=Nc1ccc(OCC(=O)NN)cc1
[4]
  T/C: 75 % of control

## CCCCCCCCOc1nc(N)nc2n[nH]nc12
[4]
  T/C: 112 % of control
[5]
  T/C: 69 % of control
[6]
  T/C: 57 % of control

## COc1cc(-c2ccc(N=Nc3ccc4c(S(=O)(=O)O)cc(S(=O)(=O)O)c(N)c4c3O)c(OC)c2)ccc1N=Nc1ccc2c(S(=O)(=O)O)cc(S(=O)(=O)O)c(N)c2c1O
dose: 1.0 mg/kg/injection, schedule: Q01DX011 (ip), vehicle: carboxymethylcellulose (CMC)
  T/C: 74 % of control
dose: 2.0 mg/kg/injection, schedule: Q01DX011 (ip), vehicle: carboxymethylcellulose (CMC)
  T/C: 38 % of control
dose: 4.0 mg/kg/injection, schedule: Q01DX011 (ip), vehicle: carboxymethylcellulose (CMC)
  T/C: 44 % of control
dose: 8.0 mg/kg/injection, schedule: Q01DX011 (ip), vehicle: carboxymethylcellulose (CMC)
  T/C: 31 % of control and 43 % of control

## O=C(Nc1ccc(NC(=O)Nc2cccc(C3=NCCN3)c2)cc1)Nc1cccc(C2=NCCN2)c1
dose: 18.75 mg/kg/injection, schedule: Q01DX011 (ip), vehicle: carboxymethylcellulose (CMC)
  T/C: 85 % of control
dose: 37.5 mg/kg/injection, schedule: Q01DX011 (ip), vehicle: carboxymethylcellulose (CMC)
  T/C: 73 % of control
[3]
  T/C: 73 % of control
dose: 150.0 mg/kg/injection, schedule: Q01DX011 (ip), vehicle: carboxymethylcellulose (CMC)
  T/C: 112 % of control

## [I][Hg][CH2]C1OC2CCC1C[CH]2[Hg][I] (configuration not stated)
[1]
  T/C: 89 % of control

## OCC1CCC(n2cnc3c(=S)nc[nH]c32)C1 (configuration not stated)
[4]
  T/C: 89 % of control
[5]
  T/C: 88 % of control
[6]
  T/C: 48 % of control

## CN1CCC(CN2c3ccccc3Sc3ccccc32)CC1
dose: 120.0 mg/kg/injection, schedule: Q01DX011 (ip), vehicle: methylcellulose (MC)
  T/C: 23 % of control

## O=C=NC(c1ccccc1)(c1ccccc1)c1ccccc1
dose: 7.0 mg/kg/injection, schedule: Q01DX011 (ip), vehicle: carboxymethylcellulose (CMC)
  T/C: 102 % of control
dose: 14.0 mg/kg/injection, schedule: Q01DX011 (ip), vehicle: carboxymethylcellulose (CMC)
  T/C: 103 % of control
dose: 28.0 mg/kg/injection, schedule: Q01DX011 (ip), vehicle: carboxymethylcellulose (CMC)
  T/C: 86 % of control and 87 % of control
dose: 112.0 mg/kg/injection, schedule: Q01DX011 (ip), vehicle: carboxymethylcellulose (CMC)
  T/C: 71 % of control

## Clc1ncnc2c1ncn2C1CCCO1 (configuration not stated)
dose: 2.34 mg/kg/injection, schedule: Q01DX011 (ip), vehicle: methylcellulose (MC)
  T/C: 50 % of control
dose: 4.68 mg/kg/injection, schedule: Q01DX011 (ip), vehicle: methylcellulose (MC)
  T/C: 68 % of control
dose: 9.37 mg/kg/injection, schedule: Q01DX011 (ip), vehicle: methylcellulose (MC)
  T/C: 69 % of control
dose: 18.75 mg/kg/injection, schedule: Q01DX011 (ip), vehicle: methylcellulose (MC)
  T/C: 41 % of control
[7]
  T/C: 9 % of control
dose: 75.0 mg/kg/injection, schedule: Q01DX011 (ip), vehicle: methylcellulose (MC)
  T/C: 1 % of control

## CC(C)CSc1nc(N)nc2nc[nH]c12
dose: 2.0 mg/kg/injection, schedule: Q01DX011 (ip), vehicle: methylcellulose (MC)
  T/C: 46 % of control
dose: 4.0 mg/kg/injection, schedule: Q01DX011 (ip), vehicle: methylcellulose (MC)
  T/C: 30 % of control
dose: 8.0 mg/kg/injection, schedule: Q01DX011 (ip), vehicle: methylcellulose (MC)
  T/C: 10 % of control
dose: 16.0 mg/kg/injection, schedule: Q01DX011 (ip), vehicle: methylcellulose (MC)
  T/C: 6 % of control
dose: 32.0 mg/kg/injection, schedule: Q01DX011 (ip), vehicle: methylcellulose (MC)
  T/C: 5 % of control
dose: 64.0 mg/kg/injection, schedule: Q01DX011 (ip), vehicle: methylcellulose (MC)
  T/C: 4 % of control

## Fc1ccc(CSc2ncnc3c2ncn3C2CCCO2)cc1 (configuration not stated)
dose: 4.6 mg/kg/injection, schedule: Q01DX011 (ip), vehicle: methylcellulose (MC)
  T/C: 53 % of control
dose: 9.3 mg/kg/injection, schedule: Q01DX011 (ip), vehicle: methylcellulose (MC)
  T/C: 45 % of control
dose: 18.7 mg/kg/injection, schedule: Q01DX011 (ip), vehicle: methylcellulose (MC)
  T/C: 10 % of control
[7]
  T/C: 1 % of control and 3 % of control

## CC(=O)Oc1ccc2c(c1)CC[C@@H]1[C@@H]2CC[C@@]2(C)[C@H]1CC[C@]2(C)OC(C)=O
dose: 31.0 mg/kg/injection, schedule: Q01DX011 (sc), vehicle: steriod suspending solution
  T/C: 76 % of control
dose: 62.5 mg/kg/injection, schedule: Q01DX011 (sc), vehicle: steriod suspending solution
  T/C: 64 % of control
dose: 125.0 mg/kg/injection, schedule: Q01DX011 (sc), vehicle: steriod suspending solution
  T/C: 71 % of control
dose: 250.0 mg/kg/injection, schedule: Q01DX011 (sc), vehicle: steriod suspending solution
  T/C: 44 % of control

## COc1cc(N=Nc2cccc(S(=O)(=O)O)c2)ccc1NC(=O)c1ccc(C(=O)Nc2ccc(N=Nc3cccc(S(=O)(=O)O)c3)cc2OC)cc1
[8]
  T/C: 102 % of control
dose: 60.0 mg/kg/injection, schedule: Q01DX011 (ip), vehicle: carboxymethylcellulose (CMC)
  T/C: 105 % of control
dose: 120.0 mg/kg/injection, schedule: Q01DX011 (ip), vehicle: carboxymethylcellulose (CMC)
  T/C: 82 % of control
dose: 240.0 mg/kg/injection, schedule: Q01DX011 (ip), vehicle: carboxymethylcellulose (CMC)
  T/C: 57 % of control

## [N-]=[N+]=C1N=CN=C1c1ncn[nH]1
[2]
  T/C: 103 % of control

## Cn1c(N)c(C(=O)CCl)c(=O)n(C)c1=O
[8]
  T/C: 66 % of control
